Some test systems named below: ACHN renal; CCRF-CEM leukemia; HL-60(TB) leukemia; HOP-92 NSCLC; HT29 colon; IGROV1 ovarian; NCI-H23 lung; NCI-H460 lung; NCI-H522 lung; OVCAR-5 ovarian; RXF 393 renal; SF-295 CNS; SF-539 CNS; SK-MEL-28 melanoma; SN12C renal; T-47D breast; U251 CNS; UACC-257 melanoma; UO-31 renal.
Holding throughout (assay): NCI tumour cell line growth inhibition, 48 h

Structures are written as SMILES.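 Cells were grown in 96-well plates and exposed to each compound for 48 hours at five concentrations; endpoints were interpolated linearly between bracketing concentrations, or set to the highest concentration if not reached. Definition used: TGI = concentration required for complete inhibition of growth.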

For `CN(C)c1ccc(N=Nc2cccc3ccoc23)cc1`, the TGI is over 100 µM with ACHN renal; over 100 µM in the assay with CCRF-CEM leukemia; over 74.7 µM in the assay on HL-60(TB) leukemia; over 100 µM with HOP-92 NSCLC; over 100 µM in the assay on HT29 colon; over 100 µM with IGROV1 ovarian. Also, the TGI with NCI-H23 lung, with NCI-H460 lung, with NCI-H522 lung, with OVCAR-5 ovarian, in the assay on RXF 393 renal and in the assay with SF-295 CNS was over 100 µM throughout. Besides, the TGI in the assay on SF-539 CNS, in the assay with SK-MEL-28 melanoma, in the assay with SN12C renal, in the assay with T-47D breast, in the assay on U251 CNS and in the assay with UACC-257 melanoma was over 100 µM each time. This molecule displayed a TGI in the assay on UO-31 renal of over 74.3 µM.

For `c1ccc(COCC23CCN(Cc4ccccc4)C(CC(OCc4ccccc4)C2)S3)cc1` (stereo not drawn), the TGI in the assay on ACHN renal was over 100 µM; in the assay with CCRF-CEM leukemia, over 100 µM; with HL-60(TB) leukemia it was 45.4 µM; in the assay on HOP-92 NSCLC, 87.4 µM; in the assay on HT29 colon, over 100 µM; in the assay on IGROV1 ovarian it was over 100 µM. In addition, the TGI in the assay on NCI-H23 lung was 95.9 µM; in the assay on NCI-H460 lung, over 100 µM; in the assay with NCI-H522 lung, 72.7 µM; in the assay with OVCAR-5 ovarian, over 100 µM; with RXF 393 renal, over 100 µM; in the assay on SF-295 CNS, over 100 µM. Further, the TGI with SF-539 CNS, in the assay with SK-MEL-28 melanoma, in the assay with SN12C renal, in the assay on T-47D breast, in the assay with U251 CNS and with UACC-257 melanoma was over 100 µM in each case. The molecule further displayed a TGI in the assay on UO-31 renal of over 100 µM.

Consider `Cc1c(O)c(OC2OC(CO)C(O)C(O)C2O)cc2c1CC[C@@H]1C2(C)C(=O)C[C@]2(C)[C@@H]([C@@](C)(O)C(O)/C=C/C(C)(C)O)[C@H](O)C[C@@]12C` (stereo partly drawn), for which the TGI in the assay with ACHN renal, in the assay with CCRF-CEM leukemia, in the assay on HL-60(TB) leukemia, with HOP-92 NSCLC, in the assay with HT29 colon and in the assay with IGROV1 ovarian was over 100 µM in each case. Moreover, the TGI with NCI-H23 lung, in the assay with NCI-H460 lung, in the assay on NCI-H522 lung, with OVCAR-5 ovarian, with RXF 393 renal and in the assay on SF-295 CNS was over 100 µM in each case. In addition, the TGI in the assay on SF-539 CNS, in the assay on SK-MEL-28 melanoma, in the assay on SN12C renal, with T-47D breast, with U251 CNS and with UACC-257 melanoma was over 100 µM each time. The TGI in the assay with UO-31 renal was over 100 µM.

Turning to `CC1=C(C)SC(=C2Sc3c(n(C)c(=O)[nH]c3=O)S2)S1`, the TGI with ACHN renal, with CCRF-CEM leukemia, in the assay with HL-60(TB) leukemia, in the assay with HOP-92 NSCLC, in the assay with HT29 colon and in the assay on IGROV1 ovarian was over 100 µM each time. In addition, the TGI in the assay with NCI-H23 lung, in the assay with NCI-H460 lung, in the assay on NCI-H522 lung, with OVCAR-5 ovarian, in the assay with RXF 393 renal and in the assay with SF-295 CNS was over 100 µM throughout. In addition, the TGI with SF-539 CNS, with SK-MEL-28 melanoma, in the assay with SN12C renal, in the assay on T-47D breast, in the assay with U251 CNS and with UACC-257 melanoma was over 100 µM each time. Besides, the TGI in the assay with UO-31 renal was over 100 µM.

`CCCCCCCCCCCCCCCCOP(=O)(O)OP(=O)(O)OCC1OC(n2ccc(N)nc2=O)CC1O` (stereo not drawn): the TGI in the assay on ACHN renal, with CCRF-CEM leukemia, in the assay on HL-60(TB) leukemia, in the assay with HOP-92 NSCLC, in the assay with HT29 colon and in the assay with IGROV1 ovarian was over 100 µM throughout. In addition, the TGI in the assay on NCI-H23 lung, in the assay with NCI-H460 lung, in the assay with NCI-H522 lung, in the assay on OVCAR-5 ovarian, in the assay on RXF 393 renal and in the assay with SF-295 CNS was over 100 µM in each case. The TGI with SF-539 CNS, in the assay with SK-MEL-28 melanoma, in the assay with SN12C renal, in the assay with T-47D breast, in the assay with U251 CNS and in the assay on UACC-257 melanoma was over 100 µM in each case. This molecule also came in with a TGI in the assay with UO-31 renal of over 100 µM.

In the case of `O=C1CC2[C@@H](N3CCCC3)CCC(N1Cc1ccccc1)C2(O)O` (stereo partly drawn), the TGI in the assay on ACHN renal, with CCRF-CEM leukemia, with HL-60(TB) leukemia, in the assay with HOP-92 NSCLC, in the assay with HT29 colon and with IGROV1 ovarian was over 100 µM each time. Further, the TGI with NCI-H23 lung, in the assay on NCI-H460 lung, in the assay with NCI-H522 lung, in the assay with OVCAR-5 ovarian, in the assay on RXF 393 renal and with SF-295 CNS was over 100 µM each time. For the same molecule, the TGI in the assay with SF-539 CNS, in the assay on SK-MEL-28 melanoma, in the assay with SN12C renal, with T-47D breast, in the assay with U251 CNS and in the assay with UACC-257 melanoma was over 100 µM in each case. This molecule also returned a TGI in the assay on UO-31 renal of over 100 µM.

As to `O=C(NO)c1cccc(OCc2ccc(Br)cc2)c1`, the TGI was 12.8 µM with ACHN renal; over 20 µM in the assay with CCRF-CEM leukemia; 21.9 µM in the assay on HL-60(TB) leukemia; 46.7 µM with HOP-92 NSCLC; 35.8 µM with HT29 colon; 35 µM in the assay on IGROV1 ovarian. In addition, the TGI with NCI-H23 lung was 17.7 µM; with NCI-H460 lung it was 14 µM; in the assay on NCI-H522 lung it was 16.2 µM; with OVCAR-5 ovarian, over 70.7 µM; in the assay on RXF 393 renal, 25.6 µM; with SF-295 CNS, over 62.1 µM. Besides, the TGI in the assay with SF-539 CNS is over 41.4 µM; with SK-MEL-28 melanoma it was over 100 µM; in the assay with SN12C renal it was 12.8 µM; with T-47D breast, 23.9 µM; in the assay on U251 CNS it was over 53.8 µM; with UACC-257 melanoma, over 100 µM. Moreover, the TGI with UO-31 renal amounted to 14.4 µM.

(Values after PubChem BioAssay (NCI).)
